Data published in patent US9394284B2, “Compounds act at multiple prostaglandin receptors giving a general anti-inflammatory response” (Allergan, Inc., priority 2010, dated 2016).

Columns and labels:
Format in all cases: cell-based
[1] = biological target: T1, human prostanoid FP receptor (Homo sapiens, UniProt P43088); experiment: FLIPR Ca2+ signaling antagonist assay, FP receptor stable cell line; details: HEK-293 EBNA stable cell line; standard agonist 17-phenyl-PGF2α; NA = inactive (no antagonism or Kb 10,000 nM); PAg, Ag not defined
T1 construct: expressed in transfected cells
Procedure, shortened: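 Peak Fluo-4 fluorescence (ex 470–495, em 515–575 nm) was read for 3.5 min on FLIPR after agonist injection and expressed relative to 10^−6 M standard agonist. Cells were HEK-293 EBNA transfectants. Test compound was added 4.5 min beforehand at 0.1–30 μM, or 0.067–1 μM for TP.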

[2] = biological target: T2, human prostanoid EP2 receptor (Homo sapiens, UniProt P43116); experiment: FLIPR Ca2+ signaling antagonist assay, EP2 receptor stable cell line; details: HEK-293 EBNA stable cell line; standard agonist PGE2; NA = inactive (no antagonism or Kb 10,000 nM); PAg, Ag not defined
T2 construct: expressed in transfected cells
Procedure, shortened: (§1)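 Functional antagonism measured by Ca2+ flux at 37 °C. Agonist ranges were 10^−11 to 10^−5 M, or 10^−12 to 10^−6 M for TP with U-46619; PGE2 for EP1/EP3, BW 245C for DP1. Compound spanned 0.1–30 μM except TP, 0.067–1 μM.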

[3] = biological target: T3, human prostanoid DP1 receptor (Homo sapiens, UniProt Q13258); experiment: FLIPR Ca2+ signaling antagonist assay, DP1 receptor stable cell line; details: HEK-293 EBNA stable cell line; standard agonist BW 245C; NA = inactive (no antagonism or Kb 10,000 nM); PAg, Ag not defined
T3 construct: expressed in transfected cells
T3 sequence (Q13258 1-359): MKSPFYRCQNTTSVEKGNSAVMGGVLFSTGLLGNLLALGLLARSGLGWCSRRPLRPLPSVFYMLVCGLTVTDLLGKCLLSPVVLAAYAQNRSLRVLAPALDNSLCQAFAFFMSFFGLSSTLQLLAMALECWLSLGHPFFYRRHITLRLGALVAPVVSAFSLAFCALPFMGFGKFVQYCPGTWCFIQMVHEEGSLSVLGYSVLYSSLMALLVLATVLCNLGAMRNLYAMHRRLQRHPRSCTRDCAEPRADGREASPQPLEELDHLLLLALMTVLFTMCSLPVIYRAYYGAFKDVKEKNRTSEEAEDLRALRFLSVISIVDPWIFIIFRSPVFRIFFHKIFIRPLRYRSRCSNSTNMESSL
Procedure, shortened: as §1

[4] = biological target: T4, human prostanoid TP receptor (Homo sapiens, UniProt P21731); experiment: FLIPR Ca2+ signaling antagonist assay, TP receptor stable cell line; details: HEK-293 EBNA stable cell line; standard agonist U-46619; NA = inactive (no antagonism or Kb 10,000 nM); PAg, Ag not defined
T4 construct: expressed in transfected cells
T4 sequence (P21731 1-343): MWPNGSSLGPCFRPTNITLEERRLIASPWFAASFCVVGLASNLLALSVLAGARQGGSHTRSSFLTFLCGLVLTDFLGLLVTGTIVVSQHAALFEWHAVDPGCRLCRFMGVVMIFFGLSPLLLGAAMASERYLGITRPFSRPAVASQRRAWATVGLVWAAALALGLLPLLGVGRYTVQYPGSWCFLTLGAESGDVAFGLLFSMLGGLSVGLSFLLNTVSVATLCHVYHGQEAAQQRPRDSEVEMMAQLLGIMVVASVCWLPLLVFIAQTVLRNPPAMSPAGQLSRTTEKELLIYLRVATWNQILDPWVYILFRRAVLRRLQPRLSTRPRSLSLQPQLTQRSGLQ
Procedure, shortened: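 HEK-293 EBNA cells stably expressed the receptor: DP1 with chimeric Gqs, EP3 with Gqi, and EP1 and TP without exogenous G protein. Fluo-4AM-loaded cells were preincubated 4.5 min at 37 °C with antagonist (0.1–30 μM; TP 0.067–1 μM) before agonist serial dilutions. Peak FLIPR fluorescence was normalised to the 10^−6 M agonist control.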

T2 sequence (P43116 whole entry): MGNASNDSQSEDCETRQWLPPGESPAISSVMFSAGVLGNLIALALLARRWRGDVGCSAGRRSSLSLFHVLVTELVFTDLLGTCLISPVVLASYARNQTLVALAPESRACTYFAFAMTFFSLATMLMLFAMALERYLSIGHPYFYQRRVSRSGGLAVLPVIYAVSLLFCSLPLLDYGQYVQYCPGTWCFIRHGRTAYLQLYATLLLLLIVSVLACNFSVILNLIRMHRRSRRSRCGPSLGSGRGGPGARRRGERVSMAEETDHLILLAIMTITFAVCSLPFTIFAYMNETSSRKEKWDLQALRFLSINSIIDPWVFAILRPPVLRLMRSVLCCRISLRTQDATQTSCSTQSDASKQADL
T1 sequence (P43088 whole entry): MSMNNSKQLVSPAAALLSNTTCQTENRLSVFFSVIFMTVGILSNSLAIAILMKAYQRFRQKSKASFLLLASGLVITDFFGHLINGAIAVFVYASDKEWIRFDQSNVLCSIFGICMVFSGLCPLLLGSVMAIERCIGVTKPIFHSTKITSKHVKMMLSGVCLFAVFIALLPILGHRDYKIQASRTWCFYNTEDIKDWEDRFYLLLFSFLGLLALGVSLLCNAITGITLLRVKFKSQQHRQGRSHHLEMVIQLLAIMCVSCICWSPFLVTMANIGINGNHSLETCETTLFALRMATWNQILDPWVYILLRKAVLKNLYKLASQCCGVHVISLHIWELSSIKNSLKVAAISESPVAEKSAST

| SMILES | Kb [1] [nM] | Kb [2] [nM] | Kb [3] [nM] | TP (FLIPR) Kb [4] | DP1 (FLIPR) Kb [3] | Kb [4] [nM] | EP2 (FLIPR) Kb [2] |
| --- | --- | --- | --- | --- | --- | --- | --- |
| Cc1cc(CCC(=O)O)nn1Cc1cc(C(F)(F)F)ccc1OCc1ccc(Cl)cc1 [Example 52, 3-[1-[2-(4-Chloro-benzyloxy)-5-trifluoromethyl-benzyl]-5-methyl-1H-pyrazol-3-yl]-propionic acid] | 30 | 2200 | 100 | PAg | – | – | – |
| Cc1cc(CCC(=O)NS(=O)(=O)C(F)(F)F)nn1Cc1cc(Cl)ccc1OCC1CCCC1 [Example 43, N-(3-[1-(5-Chloro-2-cyclopentylmethoxybenzyl)-5-methyl-1H-pyrazol-3-yl]-propionyl)C,C,C-trifluoromethanesulfon amide] | 400 | – | – | – | PAg | 2 | PAg |
| Cc1cc(CCC(=O)O)nn1Cc1cc(OC(F)(F)F)ccc1OCC1CCCC1 [Example 50, 3-[1-(2-Cyclopentylmethoxy-5-trifluoromethoxy-benzyl)-5-methyl-1H-pyrazol-3-yl]-propionic acid] | 90 | 4500 | – | – | Ag | 20 | – |
| Cc1cc(CCC(=O)O)nn1Cc1cc(OC(F)(F)F)ccc1OCc1ccc(Cl)cc1 [Example 51, 3-[1-[2-(4-Chloro-benzyloxy)-5-trifluoromethoxy-benzyl]-5-methyl-1H-pyrazol-3-yl]-propionic acid] | 20 | 500 | 600 | Ag | – | – | – |
| CCC(CC)COc1ccc(Cl)cc1Cn1nc(CC(C)C(=O)O)cc1C (racemic) [Example 68, 3-{1-[5-Chloro-2-(2-ethyl-butoxy)-benzyl]-5-methyl-1H-pyrazol-3-yl}-2-methyl-propionic acid] | 400 | 45 | 260 | – | – | 16 | – |

Results, then the molecule that gave them:

| Kb [1] [nM] | Kb [2] [nM] | Kb [3] [nM] | TP (FLIPR) Kb [4] | DP1 (FLIPR) Kb [3] | Kb [4] [nM] | EP2 (FLIPR) Kb [2] | SMILES |
| --- | --- | --- | --- | --- | --- | --- | --- |
| 110 | 3200 | – | – | PAg | 20 | – | Cc1cc(CCC(=O)O)nn1Cc1cc(Cl)ccc1OCC(C)(C)C [Example 35, 3-[1-(5-Chloro-2-(2,2-dimethylropoxy)benzyl)-5-methyl-1H-pyrazol-3-yl]-propionic acid] |
| 360 | 1400 | – | – | PAg | 40 | – | Cc1cc(CCC(=O)O)nn1Cc1cc(Cl)ccc1OCCCC(C)C [Example 40, 3-[1-(5-Chloro-2-(4-methylpentyloxy)benzyl)-5-methyl-1H-pyrazol-3-yl]-propionic acid] |
